What all share (format): cell-based
For assay [1], the system named is PI-R: A multiple HIV-1 protease inhibitor resistant strain. The assay can be described thus: Anti-HIV activity against multiple protease inhibitor resistant HIV-1 strain (FIG. 1, FIG. 2). An excerpt: (§1) FIG. 1: Anti-HIV activity of N-[3-β-O-(3′,3′-dimethylsuccinyl)-lup-20(29)-en-28-oyl]-11-aminoundecanoic acid (LH 55-1). PI-R: A multiple HIV-1 protease inhibitor resistant strain. RT-R: A multiple HIV-1 reverse transcriptase inhibitor resistant strain. NL4-3: A T-cell line adapted HIV-1 strain. NL4-3/AZT: The effect of the 1st anti-HIV drug AZT on the NL4-3 virus.
(§2) (PI-R: A multiple HIV-1 protease inhibitor resistant strain. FH-R: DSB resistant HIV-1 strain. FH=DSB).
(§3) FIG. 1 graphically illustrates the anti-HIV activity of Compound 12 (also called compound LH 55-1). In FIG. 1, PI-R represents a multiple HIV-1 protease inhibitor resistant strain of HIV-1. RT-R represents a multiple HIV-1 reverse transcriptase inhibitor resistant strain of HIV-1; NL4-3 represents a T-cell line adapted HIV-1 strain; and NL4-3/AZT represents the effect of AZT on the NL4-3 virus.
(§4) FIG. 2 graphically illustrates that multiple protease inhibitor resistant strains of HIV-1 and DSB resistant HIV-1 are sensitive to Compound 12 (LH55-1). PI-R indicates a multiple HIV-1 protease inhibitor resistant strain of HIV-1, and FH-R indicates a DSB resistant HIV-1 strain (FH=DSB).

For assay [2], the system named is FH-R: DSB resistant HIV-1 strain. The assay is described as follows: Anti-HIV activity against DSB resistant HIV-1 strain (FIG. 2).
From the text: as §2, §4

The test system of assay [3] is HIV-1 envelope-mediated membrane fusion (COS cells expressing NL4-3 envelope glycoproteins and Hela cells expressing CD4 and CXCR4). The assay can be described thus: Cell-cell fusion assay (HIV-1 entry, FIG. 3). As for the experimental part: FIG. 3. LH55-1 (compound 12) and compound 9 inhibit HIV-1 entry. Fusion between COS cells expressing NL4-3 envelope glycoproteins and Hela cells expressing CD4 and CXCR4 were performed in the presence of compound 9, 12 and T20 as indicated in the figure.
To determine the mechanisms of action, the ability of LH55-1 and compound 9 to inhibit HIV-1 entry were analyzed by using a cell-cell fusion assay. Inhibition of HIV-1 envelope-mediated membrane fusion will prevent HIV-1 from entering into the cells. […] T20 is a polypeptide fusion inhibitor recently approved for anti-HIV-1 therapy by FDA, USA.

Assay [4] deals with RT-R: A multiple HIV-1 reverse transcriptase inhibitor resistant strain. The assay can be described thus: Anti-HIV activity against multiple reverse transcriptase inhibitor resistant HIV-1 strain (FIG. 1).
From the text: as §1, §3

Assay [5] concerns HIV-1 maturation (processing of P25 into p24). The assay is described as follows: Inhibition of viral maturation, Western blot of viral particles from ACH-2 cells (FIG. 4). An excerpt:
FIG. 4. LH55-1 (compound 12) inhibits HIV-1 maturation. HIV-1 viral particles produced from ACH-2 cells in the absence (A) or presence (B) of LH55-1. The collected viral samples were lysed and analyzed by using a Western blot. The primary antibody used for the Western blot is a HIV-1 positive human serum. Mw: Molecular weight standards.
P24 is the capsid protein of HIV-1 and is essential for viral infectivity. P25 is the precursor of p24. Inhibition of the processing of P25 into p24 will result in an immature viral particle without infectivity. […] Further studies in our laboratory indicate that the amino acids at the C-terminus of P24 are critical determinant for the drug sensitivity. The anti-HIV-1 maturation activity of LH55-1 is different from that of HIV-1 protease inhibitors since maturation of other HIV-1 gag proteins such as P17 in not affected by LH55-1.
On the technique in general: In western blotting, separated proteins are transferred to a membrane and probed.

The text below walks through data of patent US7026305B2, “Anti-HIV agents with dual sites of action” (Meharry Medical College, priority 2003, dated 2006).

Read-outs that look alike come from different tables or passages of the source.

In the case of `C=C(C)C1CC[C@]2(C(=O)O)CC[C@]3(C)[C@H](CCC4[C@@]5(C)CCC(OC(=O)CC(C)(C)C(=O)O)C(C)(C)[C@@H]5CC[C@]43C)[C@@H]12` (stereo partly shown) [DSB, reference compound], the “anti-HIV activity / sensitivity of virus to compound” value in assay [1] was “resistant”. Moreover, the “sensitivity of virus to compound” value in assay [2] was “resistant”.

As for `C=C(C)[C@@H]1CC[C@]2(C(=O)NC(CC(C)C)C(=O)O)CC[C@]3(C)[C@H](CCC4[C@@]5(C)CC[C@H](OC(=O)CC(C)(C)C(=O)O)C(C)(C)[C@@H]5CC[C@]43C)[C@@H]12` (stereo partly drawn) [compound 9, N-[3-β-O-(3′,3′-dimethylsuccinyl)-lup-20(29)-en-28-oyl]-L-leucine], the anti-HIV-1 entry activity entry in assay [3] is “exhibited anti-HIV-1 entry activity, albeit at higher concentrations than compound 12”.

Turning to `C=C(C)[C@@H]1CC[C@]2(C(=O)NCCCCCCCCCCC(=O)O)CC[C@]3(C)[C@H](CC[C@@H]4[C@@]5(C)CC[C@H](OC(=O)CC(C)(C)C(=O)O)C(C)(C)[C@@H]5CC[C@]43C)[C@@H]12` [compound 12, N-[3-β-O-(3′,3′-dimethylsuccinyl)-lup-20(29)-en-28-oyl]-11-aminoundecanoic acid], the entries for the “anti-HIV activity / sensitivity of virus to compound” value in assay [1], in assay [1] (listed as Compound 12) and in assay [1] (listed as LH55-1) were “substantial antiviral activity”, “sensitive” and “very sensitive”, respectively. For the same compound, in assay [4], the anti-HIV activity entry is given as “substantial antiviral activity”. Moreover, the figures for the “sensitivity of virus to compound” value in assay [2] and in assay [2] (listed as LH55-1) were “sensitive” and “very sensitive”, respectively. In assay [3], the anti-HIV-1 entry activity result was “potent HIV-1 entry inhibitor”. For the same compound, the “concentration blocking HIV-1 envelope-mediated membrane fusion” value in assay [3] was “sub-micromolar”. The “maturation of other HIV-1 gag proteins such as P17” value in assay [5] is “not affected”. The “processing of P25 into p24 (virion maturation)” value in assay [5] (viral particles from ACH-2 cells) is “accumulation of P25”.
